Values joined by “and” are separate entries in the source; they are usually repeats but may differ in a detail not shown here. Identical values can stand only once. No end group written: not given here.
Columns and labels:
[1] = target: T1, human CRHR2 (Homo sapiens, UniProt Q13324); assay: cAMP assay in h-CRHR2 transfected SK-N-MC cells; type: cell-based; conditions: for Experimental nH / nH: Hill slope; for Experimental αmax: maximal asymptote
T1 construct: expressed in transfected cells
T1 sequence (Q13324 1-411): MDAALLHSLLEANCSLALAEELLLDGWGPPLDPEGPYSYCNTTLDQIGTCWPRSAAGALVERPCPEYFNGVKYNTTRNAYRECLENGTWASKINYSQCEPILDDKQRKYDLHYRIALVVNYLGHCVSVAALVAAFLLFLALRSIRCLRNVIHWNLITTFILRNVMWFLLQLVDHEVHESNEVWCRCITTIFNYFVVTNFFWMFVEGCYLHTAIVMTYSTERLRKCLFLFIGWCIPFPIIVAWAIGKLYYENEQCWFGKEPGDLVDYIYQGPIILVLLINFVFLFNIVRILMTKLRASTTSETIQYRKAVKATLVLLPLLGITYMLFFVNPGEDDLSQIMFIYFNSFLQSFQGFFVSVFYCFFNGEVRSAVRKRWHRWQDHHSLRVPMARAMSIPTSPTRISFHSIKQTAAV
Procedure, shortened: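 SK-N-MC cells stably expressing human CRHR2 were stimulated with peptides (1 pM-10 μM) for 60 min at 37 °C with 10 μM IBMX, then lysed in 0.5 M HCl. cAMP was quantified by competitive [125I]-cAMP antibody flash-plate assay. Hill-equation fits gave A50/pA50; Log DR was taken relative to h-SCP control in the same batch.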

[2] = target: T1, human CRHR2; assay: Radioligand binding, membranes of SK-N-MC cells transfected with human CRHR2, [125I]-anti-sauvagine-30; conditions: for CRHR2 nH: Table 15, slope of competition curve
Method: The binding profile of h-SCP (SEQ ID NO:1) at CRHR2 was determined in radioligand binding studies in a membrane preparation of SK-N-MC cells stably transfected with human CRHR2 using [^125I]-anti-sauvagine-30 as the radiolabel. […] The solution was then homogenized with a Polytron tissue grinder at a setting of 10 and 7×3 s (Brinkmann Instruments, Westbury, N.Y.). The homogenate was centrifuged at 4° Celsius at 800×g for 5 min with the pellet being discarded. The supernatant was re-centrifuged at 26,892×g for 25 min at 4° Celsius with the final pellet being re-suspended in assay buffer. All binding assays were conducted in 96-well Multiscreen GF/B filter plates (Millipore, Billericay, Mass., U.S.A.) that were pre-soaked in assay buffer with 0.3% PEI for 1 hour. […] The bound radioactivity was separated by filtration using a Multiscreen Resist manifold (Millipore Corp., Billerica, Mass., U.S.A). The filters were washed three times with ice-cold PBS at pH 7.5 and radioactivity retained on the filters was quantified by its liquid scintillation measured by a TopCount counter (Packard BioScience, Boston, Mass., U.S.A). All experiments were performed in triplicate. Data from individual competition curves were expressed as the percentage of specific [^125I]-anti-sauvagine-30 or)[^125I]-([…])-sauvagine binding (B) within each experiment.

[3] = CRHR2, Table 11, listed as h-SRP
[4] = CRHR2, Table 11, listed as h-SCP

CC[C@H](C)[C@H](NC(=O)[C@H](CO)NC(=O)[C@H](CC(C)C)NC(=O)[C@@H]1CCCN1C(=O)[C@@H]1CCCN1C(=O)[C@H](CC(=O)O)NC(=O)[C@@H](N)CC(=O)O)C(=O)N[C@@H](CC(=O)O)C(=O)N[C@@H](CC(C)C)C(=O)N[C@H](C(=O)N[C@@H](Cc1ccccc1)C(=O)N[C@@H](Cc1c[nH]cn1)C(=O)N[C@@H](CC(C)C)C(=O)N[C@@H](CC(C)C)C(=O)N[C@@H](CCCNC(=N)N)C(=O)N[C@H](C(=O)N[C@@H](CC(C)C)C(=O)N[C@@H](CC(C)C)C(=O)N[C@@H](CCC(=O)O)C(=O)N[C@@H](CC(C)C)C(=O)N[C@@H](C)C(=O)N[C@@H](CCCNC(=N)N)C(=O)N[C@H](C(=O)N[C@@H](CCC(N)=O)C(=O)N[C@@H](CO)C(=O)N[C@@H](CCC(N)=O)C(=O)N[C@@H](CCCNC(=N)N)C(=O)N[C@@H](CCC(=O)O)C(=O)N[C@@H](CCCNC(=N)N)C(=O)N[C@@H](C)C(=O)N[C@@H](CCC(=O)O)C(=O)N[C@@H](CCC(N)=O)C(=O)N[C@@H](CC(N)=O)C(=O)N[C@@H](CCCNC(=N)N)C(=O)N[C@H](C(=O)N[C@H](C(=O)N[C@@H](Cc1ccccc1)C(=O)N[C@@H](CC(=O)O)C(=O)N[C@@H](CO)C(=O)N[C@H](C(N)=O)C(C)C)[C@@H](C)CC)[C@@H](C)CC)[C@@H](C)O)[C@@H](C)O)[C@@H](C)O [SEQ ID NO: 114, DDPPLSIDLTFHLLRTLLELARTQSQRERAEQNRIIFDSV-NH2]
Experimental nH ([1]; CRHR2, Table 11): 1.07
Experimental αmax ([1]; CRHR2, Table 11): 110.5
CRHR2 nH [2]: 1.19 ± 0.14

HPGSRIVLSLDVPIGLLQILLEQARARAAREQATTNARILARV-NH2 [SEQ ID NO: 117, HPGSRIVLSLDVPIGLLQILLEQARAPAAREQATTNARILARV-NH2, reference compound]
Experimental nH [1, 3]: 1.08 and 1.06 and 0.99
Experimental αmax [1, 3]: 113.5 and 108.7 and 98.56
CRHR2 nH [2]: 1.26 ± 0.14

TKFTLSLDVPTNIMNLLFNIAKAKNLRAQAAANAHLMAQI-NH2 [SEQ ID NO: 1, TKFTLSLDVPTNIMNLLFNIAKAKNLRAQAAANAHLMAQI-NH2, reference compound]
Experimental pA50 ([1]; CRHR2, Table 11, 1 hr at 37° Celsius, listed as h-SCP): 9.41
Experimental nH [1, 4]: 0.99 and 1.04 and 1.39 and 1.55
Experimental αmax [1, 4]: 99.31 and 97.53 and 116.1 and 98.2
nH ([1]; Table 12): 1.18
pA50 ([1]; Table 12, amidation and N-terminal deletions, 3-5 replicate experiments): 9.41
pA50 ([1]; Table 14): 9.40
nH ([1]; Table 14): 1.26
EC50 ([1]; text b184, read-out: concentration required for 50% maximum effect (A50)): 400 pM
pA50 ([1]; text b201-b202, N-terminal deletions, parent in one batch): 9.41±0.03
CRHR2 nH [2]: 1.00 ± 0.04
competition curve / affinity states ([2]; [125I]-anti-sauvagine-30 competition): biphasic

Reference: patent US10040838B2, “CRHR2 peptide agonists and uses thereof” (JANSSEN PHARMACEUTICA NV, priority 2008, dated 2018)
